Results from PubChem BioAssay AID330 (DTP/NCI, 2004).
Where “and” joins values, the source holds several entries; their conditions need not be identical. Equal values may be shown once. Inconclusive results and toxic doses are left out. How the source made its calls: active means survival T/C of 150% or more; inactive means T/C below 125% in these data.

Tested on: P388 leukemia ip, CD2F1 mice, survival T/C
Experiment: NCI In Vivo Anticancer Drug Screen. Data for tumor model P388 Leukemia (intraperitoneal) in CD2F1 (CDF1) mice
Settings: endpoint: median survival time, higher = longer survival
Method in brief: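 Mice carrying the transplanted tumor received test compound or vehicle. Survival was recorded in each group, and the value is the treated-group measurement divided by that of the vehicle-treated control group.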

[1] = dose: 50.0 mg/kg/injection, schedule: Q01DX005 (ip), vehicle: saline with Tween-80
[2] = dose: 50.0 mg/kg/injection, schedule: Q01DX009 (ip), vehicle: saline with Tween-80
[3] = dose: 100.0 mg/kg/injection, schedule: Q01DX009 (ip), vehicle: saline with Tween-80
[4] = dose: 200.0 mg/kg/injection, schedule: Q01DX009 (ip), vehicle: saline with Tween-80
[5] = dose: 60.0 mg/kg/injection, schedule: Q01DX005 (ip), vehicle: saline with Tween-80
[6] = dose: 120.0 mg/kg/injection, schedule: Q01DX005 (ip), vehicle: saline with Tween-80
[7] = dose: 240.0 mg/kg/injection, schedule: Q01DX005 (ip), vehicle: saline with Tween-80
[8] = dose: 100.0 mg/kg/injection, schedule: Q01DX005 (ip), vehicle: saline with Tween-80
[9] = dose: 200.0 mg/kg/injection, schedule: Q01DX005 (ip), vehicle: saline with Tween-80
[10] = dose: 100.0 mg/kg/injection, schedule: Q04DX003 (ip), vehicle: saline
[11] = dose: 12.5 mg/kg/injection, schedule: Q01DX005 (ip), vehicle: Klucel (hydroxypropylcellulose) (HPC)
[12] = dose: 25.0 mg/kg/injection, schedule: Q01DX005 (ip), vehicle: Klucel (hydroxypropylcellulose) (HPC)
[13] = dose: 50.0 mg/kg/injection, schedule: Q01DX005 (ip), vehicle: Klucel (hydroxypropylcellulose) (HPC)
[14] = dose: 50.0 mg/kg/injection, schedule: Q01DX009 (ip), vehicle: Klucel (hydroxypropylcellulose) (HPC)
[15] = dose: 100.0 mg/kg/injection, schedule: Q01DX009 (ip), vehicle: Klucel (hydroxypropylcellulose) (HPC)
[16] = dose: 200.0 mg/kg/injection, schedule: Q01DX009 (ip), vehicle: Klucel (hydroxypropylcellulose) (HPC)

Measured: T/C

COc1ccc(NS(=O)(=O)c2ccc(NCc3c4ccccc4nc4ccccc34)cc2)nn1
inactive: dose: 12.5 mg/kg/injection, schedule: Q04DX002 (ip), vehicle: Klucel (hydroxypropylcellulose) (HPC) 96 % of control | dose: 25.0 mg/kg/injection, schedule: Q04DX002 (ip), vehicle: Klucel (hydroxypropylcellulose) (HPC) 99 % of control | dose: 50.0 mg/kg/injection, schedule: Q04DX002 (ip), vehicle: Klucel (hydroxypropylcellulose) (HPC) 89 % of control | dose: 100.0 mg/kg/injection, schedule: Q04DX002 (ip), vehicle: Klucel (hydroxypropylcellulose) (HPC) 87 % of control | dose: 200.0 mg/kg/injection, schedule: Q04DX002 (ip), vehicle: Klucel (hydroxypropylcellulose) (HPC) 91 % of control | dose: 400.0 mg/kg/injection, schedule: Q04DX002 (ip), vehicle: Klucel (hydroxypropylcellulose) (HPC) 93 % of control

Cc1c(C(N)=O)c2ccccc2c2ccccc12
inactive: dose: 12.5 mg/kg/injection, schedule: Q01DX005 (ip), vehicle: saline with Tween-80 109 % of control | dose: 25.0 mg/kg/injection, schedule: Q01DX005 (ip), vehicle: saline with Tween-80 95 % of control | [1] 93 % of control and 95 % of control

c1ccc(-c2cc3ccccc3[nH]2)cc1
inactive: [2] 90 % of control | [3] 104 % of control | [4] 102 % of control

C1CNC(CCNCCSCCNCCC2=NCCN2)=N1
inactive: dose: 12.5 mg/kg/injection, schedule: Q01DX009 (ip), vehicle: saline 100 % of control | dose: 25.0 mg/kg/injection, schedule: Q01DX009 (ip), vehicle: saline 96 % of control | dose: 50.0 mg/kg/injection, schedule: Q01DX009 (ip), vehicle: saline 100 % of control

O=C1c2ccccc2C(=O)c2c1ccc1nc(Cl)c(=O)[nH]c21
inactive: [5] 94 % of control | [6] 97 % of control | [7] 94 % of control

CCOC(=O)C12CC(COc3ccc([N+](=O)[O-])cc3)ON1OC(COc1ccc([N+](=O)[O-])cc1)C2 (stereo unspecified)
inactive: dose: 15.0 mg/kg/injection, schedule: Q01DX005 (ip), vehicle: saline with Tween-80 93 % of control | dose: 30.0 mg/kg/injection, schedule: Q01DX005 (ip), vehicle: saline with Tween-80 90 % of control | [5] 86 % of control and 88 % of control

C=C1C2(C(=O)O)CCC(C2)C1(C)C (stereo unspecified)
inactive: [1] 105 % of control | [8] 101 % of control | [9] 111 % of control

COc1ccc(OC)c(NC(=O)CCCC(=O)CC(=O)C(C)(C)C)c1
inactive: [5] 101 % of control | [6] 104 % of control | [7] 93 % of control

CS/C(=N/N=C(\C)c1ccccn1)[Se][Se]/C(=N/N=C(\C)c1ccccn1)SC
inactive: dose: 6.25 mg/kg/injection, schedule: Q01DX009 (ip), vehicle: saline with Tween-80 90 % of control | dose: 12.5 mg/kg/injection, schedule: Q01DX009 (ip), vehicle: saline with Tween-80 97 % of control | [2] 93 % of control | [4] 93 % of control

COC(=O)CC(OC)OC
inactive: [3] 100 % of control | [10] 91 % of control | [4] 113 % of control | dose: 200.0 mg/kg/injection, schedule: Q04DX003 (ip), vehicle: saline 91 % of control | dose: 400.0 mg/kg/injection, schedule: Q01DX009 (ip), vehicle: saline with Tween-80 113 % of control | dose: 400.0 mg/kg/injection, schedule: Q04DX003 (ip), vehicle: saline 95 % of control

BrCC[Se](Br)(Br)c1ccccc1
inactive: dose: 1.56 mg/kg/injection, schedule: Q01DX009 (ip), vehicle: Klucel (hydroxypropylcellulose) (HPC) 101 % of control | dose: 3.12 mg/kg/injection, schedule: Q01DX009 (ip), vehicle: Klucel (hydroxypropylcellulose) (HPC) 101 % of control | dose: 6.25 mg/kg/injection, schedule: Q01DX009 (ip), vehicle: Klucel (hydroxypropylcellulose) (HPC) 99 % of control and 93 % of control

CC(=O)/C(=C\c1ccc(Cl)cc1)C(=O)CCN(C)C
inactive: dose: 50.0 mg/kg/injection, schedule: Q01DX005 (ip), vehicle: saline 112 % of control | dose: 100.0 mg/kg/injection, schedule: Q01DX005 (ip), vehicle: saline 118 % of control

CCOC(=O)C1C(=O)C(=O)OC1CC(C)C (stereo unspecified)
inactive: [11] 109 % of control | [12] 103 % of control | [13] 107 % of control and 113 % of control

CN1CC(=O)NC2C(=CN(Cc3ccccc3)c3ccccc32)C1=O (stereo unspecified)
inactive: [5] 100 % of control | [6] 90 % of control | [7] 90 % of control

CSc1nc(N)c(C(=O)Nc2cccc3ccccc23)s1
inactive: [14] 100 % of control | [15] 97 % of control | [16] 97 % of control

CCOC(=O)C1(n2[nH]c(=O)n(-c3ccccc3)c2=O)CC(C)OC1=O (stereo unspecified)
inactive: [14] 94 % of control | [15] 91 % of control | [16] 91 % of control

COc1ccc2c(c1)CCC1C=NOC21 (stereo unspecified)
inactive: [13] 97 % of control | dose: 100.0 mg/kg/injection, schedule: Q01DX005 (ip), vehicle: Klucel (hydroxypropylcellulose) (HPC) 103 % of control | dose: 200.0 mg/kg/injection, schedule: Q01DX005 (ip), vehicle: Klucel (hydroxypropylcellulose) (HPC) 97 % of control

Cc1cc(O)c2c(c1)C(=O)c1c(c(O)cc(O)c1-c1c(O)cc(O)c3c1C(=O)c1cc(C)cc(O)c1C3=O)C2=O
inactive: dose: 3.0 mg/kg/injection, schedule: Q01DX005 (ip), vehicle: Klucel (hydroxypropylcellulose) (HPC) 95 % of control | dose: 6.0 mg/kg/injection, schedule: Q01DX005 (ip), vehicle: Klucel (hydroxypropylcellulose) (HPC) 99 % of control | dose: 12.0 mg/kg/injection, schedule: Q01DX005 (ip), vehicle: Klucel (hydroxypropylcellulose) (HPC) 96 % of control | [11] 91 % of control | dose: 24.0 mg/kg/injection, schedule: Q01DX005 (ip), vehicle: Klucel (hydroxypropylcellulose) (HPC) 93 % of control | [12] 93 % of control

OCC(O)C1OC(c2ccccc2)OC(CO)C1O (stereo unspecified)
inactive: [1] 100 % of control | [8] 109 % of control | [9] 102 % of control

O=C(NC1=NN(Cc2ccccc2)C(=O)C1)c1ccc(S(=O)(=O)F)cc1
inactive: [5] 113 % of control | [6] 121 % of control

CC(O)(c1ccc(Br)cc1)C1CC1 (stereo unspecified)
inactive: dose: 100.0 mg/kg/injection, schedule: Q01DX001 (ip), vehicle: Klucel (hydroxypropylcellulose) (HPC) 103 % of control | dose: 200.0 mg/kg/injection, schedule: Q01DX001 (ip), vehicle: Klucel (hydroxypropylcellulose) (HPC) 91 % of control | dose: 400.0 mg/kg/injection, schedule: Q01DX001 (ip), vehicle: Klucel (hydroxypropylcellulose) (HPC) 96 % of control

COc1ccc(C(O)C2c3c(cc4c(c3OC)OCO4)CCN2C)c(CO)c1OC (stereo unspecified)
inactive: dose: 12.5 mg/kg/injection, schedule: Q01DX001 (ip), vehicle: Klucel (hydroxypropylcellulose) (HPC) 88 % of control | dose: 25.0 mg/kg/injection, schedule: Q01DX001 (ip), vehicle: Klucel (hydroxypropylcellulose) (HPC) 88 % of control | dose: 50.0 mg/kg/injection, schedule: Q01DX001 (ip), vehicle: Klucel (hydroxypropylcellulose) (HPC) 94 % of control

CC(C)=Cc1cc(-c2cc(C=C(C)C)on2)no1
inactive: dose: 60.0 mg/kg/injection, schedule: Q01DX005 (ip), vehicle: saline 100 % of control | dose: 120.0 mg/kg/injection, schedule: Q01DX005 (ip), vehicle: saline 104 % of control | dose: 240.0 mg/kg/injection, schedule: Q01DX005 (ip), vehicle: saline 100 % of control

Cc1nnc2nc(N)[nH]n2c1=O
inactive: dose: 25.0 mg/kg/injection, schedule: Q01DX005 (ip), vehicle: water 95 % of control | dose: 50.0 mg/kg/injection, schedule: Q01DX005 (ip), vehicle: water 98 % of control | dose: 100.0 mg/kg/injection, schedule: Q01DX005 (ip), vehicle: water 93 % of control

COc1ccc(-c2cc3cc(OC)c(OC)cc3c[n+]2C)cc1OC
inactive: dose: 25.0 mg/kg/injection, schedule: Q04DX003 (ip), vehicle: saline 96 % of control | dose: 50.0 mg/kg/injection, schedule: Q04DX003 (ip), vehicle: saline 94 % of control | [10] 104 % of control

O=C1CC2(C(=O)N1)c1ccccc1-c1ccccc12
inactive: [2] 96 % of control | [3] 103 % of control | [4] 119 % of control
